Key:
[1] = DOSY-NMR, 10 mM in D2O, 600 MHz, not a partition coefficient
Description: 1H and 2D NMR (COSY, HSQC, and HMBC) spectra were recorded on a Bruker Avance III 500 MHz spectrometer operating at 125 MHz. The spectra were obtained in methanol-d4 or DMSO-d6 using residual solvent signals as internal standards. Diffusion orientated (DOSY) NMR spectra were obtained on a JEOL 600 mHz instrument using DOSY pulse sequences provide by the manufacturer.
The diffusion constants (log D) of residual deuterated water (HDO) and methanol (MeOD) are also indicated on the graphs. The corresponding ^1H-NMR spectra are shown above the graphs. All spectra were acquired at 600 MHz.

[2] = tested on: Bacillus subtilis ATCC 6633; assay: MIC, two-fold broth dilution in TYG, 96-well microtiter plates; type: cell-based; details: TunR2 in DMSO, TunR2-DOC and DOC in water, table prints no unit (dilution series in μg/mL)
Description: (§1) Seed cultures of Bacillus subtilis ATCC 6633, Escherichia coli ATCC 9637, Mycobacterium smegmatis mc^2 155, and Saccharomyces cerevisiae NRRL Y-139 were started from freezer stocks and grown in tryptone-yeast extract-glucose (TYG) broth for 24 hours at 27° C. Microbial dilutions were prepared as follows. Sterile PBS (phosphate buffer saline, 1 mL) was added to a glass tube using a disposable 10 mL pipet. Using a sterile loop microbial material was transferred from an agar plate, and the turbidity was measured and adjusted to 1.0 Macfarlane units. The inoculum dilution was then prepared. To a sterile 50 mL blue-capped centrifuge tube, 50 mL TYG stock media were added using a 25 mL disposable pipet. To this tube was then added 1 mL of the microbial dilution, and the contents were mixed by vortexing (this will give a 1:50 v/v dilution). This 1:50 v/v dilution inoculum was dispensed using a multichannel pipet, adding 100 μL to each well of a 96-well round-bottom microtiter plate.
(§2) MICs and MBICs were evaluated using two-fold broth dilution series in 96-well round-bottom microtiter plates. Diluted solutions were prepared by adding 20 μl of the 1 mg/mL stock of the TunR2 to 1.980 mL of TYG in a 15 mL blue-capped centrifuge tube for a total of 2 mL volume at 10 μg/mL. […] A blank of 20 μl dimethyl sulfoxide (DMSO) up to 2 mL TYG was also included. The microtiter plates were then set up as follows. To wells 1, 2, and 3 of the first row (A row) of the microtiter plate 200 μl of TYG media control were added. To wells 4, 5, and 6 in row A of the plate 200 μl TYG+TunR2 (10 μg/mL) were added. To wells 7, 8, and 9 in row A of the plate, 200 μl TYG+DOC (5 μg/mL) were added. And to wells 10, 11, and 12 in row A of the plate, 200 μl TYG+TunR2 (10 μg/mL)+DOC (5 μg/mL) were added. To the remaining wells of the microtiter plate 100 μl of the sterile TYG liquid media were added.
(§3) Two-fold dilutions were then prepared as follows. […] The box was placed into the 37° C. incubator and microbial growth and biofilm formation were assessed visually on a daily basis for six days.

[3] = tested on: Escherichia coli ATCC 9637; assay: as above; type: cell-based; details: TunR2 in DMSO, TunR2-DOC and DOC in water, table prints no unit (dilution series in μg/mL)
Description: as §1, §2, §3

[4] = tested on: Saccharomyces cerevisiae NRRL Y-139; assay: as above; type: cell-based; details: TunR2 in DMSO, TunR2-DOC and DOC in water, table prints no unit (dilution series in μg/mL)
Description: as §1, §2, §3

[5] = tested on: Mycobacterium smegmatis mc^2 155; assay: MIC and MBIC (growth and biofilm formation), two-fold broth dilution in TYG; type: cell-based
Description: MICs and MBICs were evaluated using two-fold broth dilution series in 96-well round-bottom microtiter plates. […]
Two-fold dilutions were then prepared as follows. […] The box was placed into the 37° C. incubator and microbial growth and biofilm formation were assessed visually on a daily basis for six days. […]

[6] = Solubilization in water with sodium deoxycholate; type: physicochemical; details: at 50° C., same conditions for tunicamycin and TunR1
Description: (§4) The modified tunicamycin TunR2 solid powder (8 mg, […]) and DOC solid powder (4.4 mg, […]) were vortexed together in an equimolar ratio, and was prepared in water for injection (3 mL) and stirred until dissolved. If needed, the pH was adjusted to 5.8 by addition of 10% acetic acid. The TunR2 was initially insoluble under these conditions, but began to dissolve after 5 minutes at 50° C. (in the range of about 50° C. to about 70° C.) and was completely soluble after 10 minutes at this temperature (FIG. 6A to FIG. 6C). […] The native tunicamycin solution became somewhat hazy after this time, but was readily clarified on gentle re-warming.
(§5) The present work undertaken to develop a water-soluble TunR2 formulation solubilized by sodium deoxycholate to reduce the solvent toxicity and to improve the physiochemical properties. Solutions were prepared either by mixing together TunR2 and DOC powders in equimolar portions and adding water, or by preparing a DOC aqueous stock solution and adding this directly to the TunR2. At 10 mg/mL, the TunR2 was initially insoluble under these conditions, but began to dissolve after 5 minutes at 50° C. and was completely soluble after 10 minutes at this temperature. […] The native tunicamycin solution became somewhat hazy after this time, but was readily clarify on gentle re-warming.

[7] = Stability of the aqueous DOC solutions on standing at room temperature; type: physicochemical; details: 18 hours at room temperature
Description: as §4, §5

Substance	diffusion constant (log D) [1]	Minimal Inhibitory Concentration [2]	Minimal Inhibitory Concentration [3]	Minimal Inhibitory Concentration [4]	effect of DOC control in the MIC assays ([5]; DOC at the same concentration as the TunR2)	Minimal Inhibitory Concentration ([5]; first figure of cell MIC/MBIC, TunR2 in DMSO, TunR2-DOC and DOC in water, unit not given)	time to complete dissolution in water with DOC ([6]; 8 mg TunR2 + 4.4 mg DOC in 3 mL water for injection) [min]	time to complete dissolution in water with DOC ([6]; at 10 mg/mL, equimolar DOC) [min]	state of aqueous DOC solution after cooling and standing [7]
5β-cholan-24-oic acid-3α, 12α-diol sodium salt [DOC]	−9.66	>2.5	>2.5	>2.5	no effect	>2.5			
tunicamycin							≤ 5	≤ 5	somewhat hazy
